Patent US20030064380A1, “Anergy-regulated molecules” (The Center For Blood Research, Inc., priority 2001, published 2003)
Residues, ends and D or L forms follow the SMILES beside them. *: point of attachment. Cbz = O=C(OCc1ccccc1)*; CH2F = FC*

System: primary Th1 cells
Test: protease inhibitors assay: recovery of antigen responses of anergised primary Th1 cells (ELISA or RNase protection)
Assay type: cell-based, mice
Details: single inhibitor, two experiments
Description: Th1 cells were anergised by pretreatment with 1 μg/ml plate-bound antiCD3ε in the presence of 100 μM Z-VAD.fink (Clabiochem), 5 μM NLVS (Calbiochem) and/or 10 μM lactacystein (Calbiochem) for 16 hours. After that, cells were washed three times and left resting for 48-72 hours.
Whether anergy could be prevented by including caspase and proteasome inhibitors in the first step of pretreatment with ionomycin or anti-CD3 was tested to evaluate the functional importance of proteolytic pathways in anergy induction. […] The variability likely reflects the fact that the proteasome inhibitors are toxic, and needed to be washed away hours to days before the assay stimuli (antigen/APC or anti-CD3/anti-CD28) were applied. […] Similar results were obtained with the D5 T cell clone. Thus directed proteolysis of signaling proteins may be one of several mechanisms that cooperate to maintain lymphocyte anergy.

SMILES | recovery of IL-2 production [%]
CC(C)CC(C=CS(C)(=O)=O)NC(=O)C(CC(C)C)NC(=O)C(CC(C)C)NC(=O)Cc1cc(I)c(O)c([N+](=O)[O-])c1 (centres unmarked) [NLVS] | 112
COC(=O)C[C@H](NC(=O)[C@H](C)NC(=O)[C@@H](NC(=O)OCc1ccccc1)C(C)C)C(=O)CF [ZVAD] (Cbz-Val-Ala-Asp(OMe)-CH2F) | 90
